Measured values reported in patent US20100168228A1, “NOVEL CHEMOTHERAPEUTIC AGENTS AGAINST INFLAMMATION AND CANCER” (RELIANCE LIFE SCIENCES PVT. LTD., priority 2006, published 2010).

How the values were obtained:
[1] = tested on: Jurkat cells; test: Cytotoxicity assay (MTT), Jurkat; assay type: cell-based, human
Procedure: FIG. 8: CAMVE potentiates apoptosis induced by TNF or chemotherapeutic agents. A1. Jurkat cells were incubated at 37° C. with TNF, in the presence and absence of 10 μM of CAMVE for 72 h and the viable cells were assayed using MTT reagent. The results are shown as the mean±S.D. from triplicate culture. A2. Jurkat cells (1×10^6 cells/ml) were pretreated with CAMVE for 3 h as indicated and incubated with TNF for 24 hrs, and PARP cleavage was determined by FACS analysis as described in the “Materials and Methods”. M2 gated population represents the percentage apoptotic population B. SA-LPS/Jkt cells pretreated with 10 μM of CAMVE for 3 h, were treated with 1 μM of cis-plastin, doxorubicin, taxol or vincristine for 72 h. The cytotoxicity was then assayed by MTT method. Results are shown as the mean±S.D. from triplicate samples.
FIG. 11: Dose response for compound 27 induced loss of cell viability and cell proliferation in Jurkat cell line. […] Error bars indicate±S.D.
Cytotoxicity was assayed by the modified tetrazolium salt 3-(4,5-dimethylthiazol-2-yl)-2,5-diphenyltetrazolium bromide (MTT) assay as described by Plumb, J A et al. (Cancer Res. 1989 Aug. 15; 49(16):4435-4440). […]

[2] = tested on: Jurkat cells; test: PARP cleavage assay using flow cytometry, Jurkat; assay type: cell-based, human
Procedure: FIG. 8: CAMVE potentiates apoptosis induced by TNF or chemotherapeutic agents. A1. Jurkat cells were incubated at 37° C. with TNF, in the presence and absence of 10 μM of CAMVE for 72 h and the viable cells were assayed using MTT reagent. The results are shown as the mean±S.D. from triplicate culture. A2. Jurkat cells (1×10^6 cells/ml) were pretreated with CAMVE for 3 h as indicated and incubated with TNF for 24 hrs, and PARP cleavage was determined by FACS analysis as described in the “Materials and Methods”. […]
FIG. 15: Induction of apoptosis and PARP cleavage by compound 27. Jurkat cells were treated with 100 and 500 nM of the compound for indicated time period and PARP cleavage was determined using FACS analysis as described in the “Materials and Methods”. […]
Extent of PARP cleavage is determined using polyclonal antibody specifically recognizing the 85 kDa fragment of cleaved PARP (NSB 699 Novus Biologicals) and can be used as a marker for detecting apoptotic cells. […] Cells were washed twice with wash buffer (PBS+1% heat inactivated FBS) and analysed using FACS.
PARP Cleavage Assay using Flow Cytometry: Extent of PARP cleavage is determined using polyclonal antibody specifically recognizing the 85 kDa fragment of cleaved PARP (NSB 699 Novus Biologicals) and can be used as a marker for detecting apoptotic cells. […]

[3] = tested on: Jurkat cells; test: Cell cycle analysis (PI, flow cytometry), Jurkat; assay type: cell-based, human; settings: for cell cycle distribution with time: 100 nM and 500 nM
Procedure: (§1) Cells (log phase culture) were treated with vehicles alone (similar volumes of DMSO) or with the compound (various concentrations) to be tested for 24 h. Untreated cells were also included in this experiment for comparison. After treatments, the cells were harvested and washed with cold EDTA/PBS (5 mmol/L). Cells were then resuspended in cold EDTA/PBS (300 μl) and 100% chilled ethanol (700 μl), vortexed, and incubated at room temperature for 1 h. Samples were centrifuged at 200×g for 5 minutes and the supernatant was removed. A solution containing propidium iodide (100 μg/ml) and RNase A (1 mg/ml) was added to the samples and incubated for 1 h at room temperature. Samples were then transferred to 12×75 mm polystyrene tubes and analyzed on flow cytometer. Flow cytometry analyses were done on FACSCalibur (Becton Dickinson, San Jose, Calif.) and data were analyzed using CellQuest analysis software.
as §1, with “Cells (log phase culture) were treated with vehicles alone (similar volumes of DMSO) or with the compound (various concentrations) to be tested for 24 h.” left out, “PBS.” for “EDTA/PBS (5 mmol/L).”, “PBS” for “EDTA/PBS”

[4] = tested on: RAW 264.7 cells; test: Nitrite quantification (Griess) in LPS stimulated macrophages; assay type: cell-based, mouse; settings: for CONCENTRATION OF NITRITE μM ± SD: RAW 264.7 + LPS (200 ng/ml) + 10 μM compound, 24 h, LPS + DMSO control 14.560, basal 0.782
Procedure: NO2^− accumulation was used as an indicator of Nitric Oxide (NO) production in the medium as described previously (Green et al., 1982 Anal Biochem 126, 131-138). […] The isolated supernatants were mixed with an equal volume of Griess reagent (1% sulfanilamide, 0.1% naphthylenediamine dihydrochloride, and 2% phosphoric acid) and incubated at room temperature for 15 min. NaNO2 was used to generate a standard curve, and nitrite production was determined by measuring the optical density at 540 nm.
To estimate the anti-inflammatory effects of all the synthetic molecules listed in this study, we measured the accumulation of nitrite, the stable metabolite of NO, in the culture media using Griess reagent.
To investigate the effect of CAMVE on NO production, we measured the accumulation of nitrite, the stable metabolite of NO, in the culture media using Griess reagent. To investigate the effect of CAMVE on NO production, Raw 264.7 cells, pretreated with indicated concentrations of CAMVE for 1 h were incubated with LPS (250 ng/ml) for 24 h.

Row | SMILES | GI50 ([1]; Homo sapiens, Jurkat, MTT, 24 h and 48 h, read-out: GI50 (concentration causing 50% growth inhibition)) [nM] | PARP cleavage ([2]; 100 nM and 500 nM, increasing with time) | G2/M population ([3]; 50 nM (data not shown)) | cell cycle distribution with time ([3]; 48 and 72 h) | cell cycle distribution with time ([3]; 24 h) | increase of cells in the G2/M phase ([3]; 100 nM, 24 h) [%] | G2/M and sub G1 population ([3]; concentration higher than 100 nM) | CONCENTRATION OF NITRITE μM ± SD [4] [µM] | cytotoxicity induced by chemotherapeutic agents (MTT) ([1]; SA-LPS (100 ng/ml) activated Jurkat, 10 μM CAMVE 3 h, then 1 μM cis-platin, doxorubicin, taxol or vincristine 72 h) | TNF induced PARP cleavage (apoptosis) ([2]; pretreated 3 h, TNF 24 h) | cell cycle distribution ([3]; 5 μM, 24 h) | LPS induced nitrite production ([4]; Raw 264.7 pretreated 1 h, LPS 250 ng/ml 24 h)
1 | COc1cc([C@@H]2Oc3c(OC)cc(/C=C/C(=O)O)cc3[C@H]2C(=O)O)ccc1O [compound 27, 5-[(E)-2-carboxyvinyl]-2β-(4-hydroxy-3-methoxyphenyl)-7-methoxy-2,3-dihydro-1-benzofuran-3α-carboxylic acid] | ~100 | significant PARP cleavage was achieved at 100 nM and 500 nM | no significant increase in G2/M population | significant decrease in the G2/M population | accumulated in G2/M after 24 h with a significant decrease in the G1 and S phase populations | ~50 | further increase in both G2/M and sub G1 population | 5.027 ± 0.200 |  |  |  | 
2 | COC(=O)c1ccc(OC(=O)/C=C/c2ccc(O)c(O)c2)c(OC)c1 [compound 1, Methyl 4-{[(2E)-3-(3,4-dihydroxyphenyl)prop-2-enoyl]oxy}-3-methoxybenzoate] |  |  |  |  |  |  |  | 1.849 ± 0.214 | significantly enhanced by CAMVE pretreatment | significant potentiation of PARP cleavage in a dose dependent manner | significant increase of cells in the G1 and compensatory decrease in the S phase | inhibited by CAMVE treatment in a dose-dependent manner
